The record followed here is the NIST ThermoML archive (doi:10.1016/j.jct.2008.06.008).

Values joined by “and” are separate entries in the source; they are usually repeats but may differ in a detail not shown here. Equal entries are not always repeated. ± gives the expanded uncertainty stated by the source.

The series in a line: molar heat capacity at constant pressure. The following applies: 298.15 K; 101.33 kPa; Liquid; Large sample (1 g) DSC.
Turning to `[2H]C([2H])([2H])C(=O)C([2H])([2H])[2H]` [(D6)-2-propanone], the “molar heat capacity at constant pressure” value was 134.94 ± 2.7 J/K/mol and 133.6 ± 2.7 J/K/mol.

As to `[2H]C([2H])([2H])S(=O)C([2H])([2H])[2H]` [(methyl sulfoxide)-d6], the “molar heat capacity at constant pressure” value is 165.76 ± 3.3 J/K/mol and 163.87 ± 3.3 J/K/mol. In the case of `[2H]C(=O)N(C([2H])([2H])[2H])C([2H])([2H])[2H]` [N,N-dimethylformamide-d7], the “molar heat capacity at constant pressure” value was 160.5 ± 3.2 J/K/mol and 159.47 ± 3.2 J/K/mol.

For the compound `CC(C)=O` [acetone], the “molar heat capacity at constant pressure” value is 122.74 ± 2.5 J/K/mol and 120.73 ± 2.4 J/K/mol. For `[2H]C([2H])([2H])C#N` [acetonitrile-d3], the “molar heat capacity at constant pressure” value was 95.74 ± 1.9 J/K/mol and 95.02 ± 1.9 J/K/mol. For `CC#N` [acetonitrile] the value was 89.62 ± 1.8 J/K/mol and 88.57 ± 1.8 J/K/mol.

For `[2H]c1c([2H])c([2H])c([2H])c([2H])c1[2H]` [benzene-d6], the “molar heat capacity at constant pressure” value was 152.18 ± 3 J/K/mol and 149.82 ± 3 J/K/mol. The result for `c1ccccc1` [benzene] reads 133.82 ± 2.7 J/K/mol and 132.11 ± 2.6 J/K/mol; that for `[2H]C(Cl)(Cl)Cl` [chloroform-d], 114.94 ± 2.3 J/K/mol and 111.98 ± 2.2 J/K/mol. The result for `[2H]C1([2H])C([2H])([2H])C([2H])([2H])C([2H])([2H])C([2H])([2H])C1([2H])[2H]` [cyclohexane-d12] reads 185.6 ± 3.7 J/K/mol and 182.57 ± 3.6 J/K/mol; that for `C1CCCCC1` [cyclohexane], 154.34 ± 3.1 J/K/mol and 150.73 ± 3 J/K/mol; that for `[2H]C([2H])(Cl)Cl` [dichloromethane-d2], 103.08 ± 2.1 J/K/mol and 101.49 ± 2 J/K/mol. For `ClCCl` [dichloromethane] the value was 97.97 ± 2 J/K/mol and 95.61 ± 1.9 J/K/mol; for `C[S+](C)[O-]` [dimethyl sulfoxide], 150.74 ± 3 J/K/mol and 149.05 ± 3 J/K/mol. For the compound `CN(C)C=O` [dimethylformamide], the “molar heat capacity at constant pressure” value was 145.78 ± 2.9 J/K/mol and 144.02 ± 2.9 J/K/mol.

On to `[2H]C([2H])([2H])O` [methanol-d3], for which the “molar heat capacity at constant pressure” value is 86.07 ± 1.7 J/K/mol and 84.91 ± 1.7 J/K/mol.

Regarding `[2H]OC([2H])([2H])[2H]` [methanol-d4], the “molar heat capacity at constant pressure” value was 89.03 ± 1.8 J/K/mol and 87.75 ± 1.8 J/K/mol. For `CO` [methanol] the value was 80.58 ± 1.6 J/K/mol and 79.07 ± 1.6 J/K/mol; for `[2H]c1c([2H])c([2H])c(C([2H])([2H])[2H])c([2H])c1[2H]` [toluene-d8], 176.77 ± 3.5 J/K/mol and 174.28 ± 3.5 J/K/mol; for `Cc1ccccc1` [toluene], 154.75 ± 3.1 J/K/mol and 152.53 ± 3 J/K/mol. The result for `ClC(Cl)Cl` [trichloromethane] reads 112.71 ± 2.2 J/K/mol and 110.74 ± 2.2 J/K/mol.
